Results from patent US9607202B2, “Methods of generating trophectoderm and neurectoderm from human embryonic stem cells” (UNIVERSITY OF PITTSBURGH—OF THE COMMONWEALTH SYSTEM OF …, priority 2009, dated 2017).

What was measured:
[1] = tested on: pluripotent hESCs, line H7; test: TE-induction and lineage selectivity of hESCs by transcription factor immunostaining (CDX2, brachyury, GATA6, OCT4); format: cell-based, human
Protocol: Pluripotent hESCs, line H7, were grown on mitomycin-treated MEFs (GlobalStem) at normal-density (120,000 cells/6 cm^2), maintained in DSR media (Table 1), and passaged weekly using Collagenase IV (Invitrogen/Gibco) and StemPro®EZPassage™ (Invitrogen) as directed. Cell colonies were briefly spun, resuspended in DSR, and plated onto normal density MEFs in CM (Table1). For TE-directed differentiation, hESCs were passaged at 1:5 dilution onto low-density MEFs (30,000 cells/6 cm^2) using DSR media minus FGF2 supplemented with BMP4 (Invitrogen, PHC7914) 100 ng/mL. Media was changed daily.
Feeder-free hESCs were grown on Geltrex (Invitrogen)-coated plates in StemPro (Invitrogen), passaged weekly with Collagenase IV or Accutase (StemCell Technologies) as directed, resuspended in StemPro and plated onto Geltrex-coated plates. For TE-directed differentiation pluripotent hESCs maintained in StemPro or in Erb's Minimal Induction Media (EMIM) were passaged onto feeder-free, Geltrex-coated plates into respective basal media supplemented with the activin A antagonist, SB431542 (10 uM), and/or BMP4 (100 ng/mL or 500 ng/mL) as indicated. Media was changed daily. Terminal STB differentiation was accomplished by culturing hESCs in EMIM+SB+100 ng/mL BMP4 for 14 days.
In PBS, cell colonies were fixed with 2% paraformaldehyde, permeabilized with 1% Triton X-100 (Sigma, St. Louis Mo.), and non-specific antibody binding blocked with 10% goat serum. Primary antibodies (Table 2) were diluted in 1% goat serum, spun briefly, and incubated overnight at 37° C. After a wash in PBS-Tween 0.05% a species-specific fluorescent secondary antibody (prepared as above) was added for 60 min at 37° C. Cells were washed in PBS-Tween 0.05%, incubated in Hoechst […] (1:10,000), and mounted in Gelvatol polyvinyl alcohol-based media (Sammak et al., 1987).
Nuclear labeling (Hoechst 33342) facilitates automated image segmentation for counting cell number. Since pluripotent hESCs can differentiate along multiple lineages, TE-differentiation was determined by immunostaining for transcription factors localized to the cell's nucleus or cytoplasm (Table 2). Four color microscopy permits co-labeling of cells with markers of pluripotent hESCs (OCT4), TE cells (CDX2), and alternative markers for early differentiation including neurectoderm (nestin), mesoderm (brachyury), or extraembryonic endoderm
(GATA6). TE-induction was determined by two criteria: 1) the percentage of all cells that were CDX2-positive and the fold change of CDX2-nuclear intensity over control, unstimulated cells. […] TE selectivity was determined by a significant percentage of CDX2-positive cells and a suppression of the percentage of nestin-, brachyury-, and GATA6-positive cells.
96-well Microplates were scanned using the 5 or 10× objective on the ArrayScan V Automated image analysis was performed using the Compartmental Analysis BioApplication using Hoechst for identification of nuclei and various transcription factor antibodies (Table 2). Nuclear-specific fluorescence intensity was determined from approximately 300 single cells per well from 3-6 independent wells to produce a well-average nuclear intensity for each measurement Mean and standard deviation were calculated from multiple wells. Fold change of the mean intensities were normalized against matched unstimulated external controls, usually the pluripotent condition, to divide out differences due to efficiency of antibody-antigen binding and chromophore quantum yield. […] Select conditions are additionally compared in bar graph format to show standard deviations and T-tests.

[2] = tested on: hESCs; test: hESC viability and OCT4 expression in minimal induction media; format: cell-based, human
From the text: Thus, to maintain compatibility with StemPro-cultured hESC, a DMEM/F12-based minimal induction media (MIM, Table 1) was developed by testing short-term hESC viability (FIG. 7) and OCT4 expression (FIG. 2) after systematically reintroducing cell survival, but not pluripotency, components.
One criterion for derivation of a minimal induction media was that hESCs would be viable and continue to express the OCT4 pluripotency marker. […] A second criterion for the derivation of a minimal induction media was that hESC would remain competent to differentiate.

[3] = tested on: hESCs (line UCO6 (HSF6)); test: Neuronal differentiation of hESCs on different surfaces; format: cell-based, human
Protocol: (§1) All coverslips (Fisher scientific, Pittsburgh, Pa.) were adhered onto the bottom of 24-well plate with Kwik Sil (World Precision Instruments, Inc., Sarasota, Fla.). Before cell seeding, the surface of coverslips were sterilized under UV for 30 min, and then immersed into PBS for 30 min. Laminin (BD Biosciences, San Jose, Calif.) coated glass coverslips were also prepared as control substrates for cell culture.
hESCs, line HSF6 obtained from the University of California-San Francisco and WiCell, respectively were approved by the University of Pittsburgh ESCRO committee with IRB exempt approval. hESCs were maintained in ES-DMEM high glucose with 20% KSR, 1% MEM NEAA (WiCell Research Institute, Madison, Wis.), Pen/Strep (10,000 U/10,000 ug), 1% L-Glutamine (2 mM), and 8 ng/mL bFGF (Invitrogen, Carlsbad, Calif.), and passaged in 50-100 cell clusters as recommended. hESCs were grown on mitomycin-treated MEFs prepared from 14-day CF-1 embryos. Media was changed every other day and colonies were mechanically passaged every […] with a Pasteur pipette. […]
(§2) Neuronal differentiation was detected by anti-βIII tubulin for hESCs, anti-NF200 for rNSCs. […]

[4] = tested on: rNSCs; test: Neuronal differentiation of rNSCs cultured on different surfaces; format: cell-based, rat
Protocol: as §1, with “culture. […]” for “culture.”
as §2
For rNSCs, neuronal cells (NF200 positive) were counted on the whole coverslips and averaged values across all coverslips were presented as mean±SD. Total cell number was calculated from the number of nuclei. Cell nuclei were counted on ten randomly selected images, averaged, divided by image area and then multiplied by the area of coverslip. […] Cell density was calculated by dividing values of cell number by the image area. Neurite length was measured using Image J and plug-in Neuron J. Length of the primary neurite and all neurites of each cell in each group was measured by tracing the neurites of NF200 positive cells with the tracing algorithm contained in Neuron J. Primary neurite was defined as the longest process out of cell body. […]

[5] = tested on: hESCs; test: Terminal differentiation to syncytia (percentage of bi- or multi-nucleated cells); format: cell-based, human; conditions: neurectoderm culture conditions induced by noggin
[6] = tested on: hESC; test: Neurectoderm differentiation from hESCs in noggin media; format: cell-based, human; conditions: small colonies from StemPro
Protocol: There are several laboratories that have applied the BMP4 antagonist noggin for differentiation of hESC to neurectoderm or neural stem cells (Ying, Stavridis et al. 2003; Gerrard, Rodgers et al. 2005; Yao, Chen et al. 2006; Cohen, Itsykson et al. 2007). Here, small colonies grown in StemPro are used as the starting material. Cells were plated in StemPro media or neural differentiation media (DMEM/F12 media supplemented with N2/B27). After each day of growth, colonies with the smallest colonies were changed into Noggin media. When colonies grown in noggin had differentiated along a neurectoderm lineage, the cells were fixed for immunostaining. If the colonies had not differentiated, the media was changed and the cells remained in Noggin media for another day. The process was repeated each day for 6-7 days. Cells were immunostained with the following antibodies: Pax6 mouse (Santa Cruz), Otx2 rabbit (Abeam), Nestin mouse (Covance), Alexa 488 goat anti mouse green, Cy3 goat anti rabbit red, Cy5 goat anti mouse far red.

[7] = short-term treatment in StemPro (SB or low-dose BMP4 alone)

With NC(=O)c1ccc(-c2nc(-c3ccc4c(c3)OCO4)c(-c3ccccn3)[nH]2)cc1 [SB, SB431542] the brachyury expression [1, 7] was “significant increase in brachyury expression”.

With OCCS [β-mercaptoethanol] the hESC survival ([2]; addition to minimal induction media with or without heparin) was “reduced hESC survival”.

heparin was tested, and the hESC viability ([2]; basal media once BMP4 was supplemented) was “improve hESC viability”.

With “BMP4: bone morphogenic protein (BMP4), TGFβ superfamily member” the “fraction of cell population induced to non-TE lineages” value ([1]; 100 ng/mL BMP4 in MIM) was “over half of the cell population”, the “TE-induction efficiency as frequency of CDX2 staining” value (“TE-induction efficiency as frequency” for short) ([1]; BMP4, monolayer colonies, DSR/MEF culture (low density MEFs minus FGF2), 7 days) was 3.6% and the “TE-induction efficiency as frequency” value ([1]; BMP4, multilayer colonies, DSR/MEF culture, 7 days) was 44.4%. The “increase in percent brachyury (T) positive cells” value ([1]; BMP4 added to StemPro for 48 hours) was 6 fold, the CDX2 induction ([1]; BMP4 alone 500 ng/mL in EMIM, day 2) was “Significant CDX2 induction” and the “extraembryonic endoderm (GATA6) positive cells” value ([1]; BMP4 in MIM) was ~20%. The “mesoderm (brachyury) positive cells” value ([1]; BMP4 in MIM) was “over 40%”, the OCT4 expression ([1]; BMP4 supplementation on low density MEFs) was “decreased OCT4 expression” and the CDX2 expression ([1]; BMP4 supplementation to EMIM, culture day 7) was “induced diffuse CDX2 expression”. For the same molecule, the “GATA6 over MIM alone” value ([1]; BMP4 supplementation to MIM) was “did not increase”, the “brachyury over MIM alone” value ([1]; BMP4 supplementation to MIM) was “did not increase” and the “fold induction of CDX2 over MIM alone” value ([1]; BMP4 supplementation to MIM) was “significantly increased”. The “TE-induction efficiency as frequency” value ([1]; StemPro containing BMP4, MEF-free, 4 days) was 93.7%, the brachyury expression ([1]; addition of BMP4 to StemPro) was “dose-dependent, statistically significant increase” and the brachyury expression [1, 7] was “significant increase in brachyury expression”.

In the case of laminin, the “number of cells per colony” value ([3]; end of the second week (14 days)) is reported as “indistinguishable”, the “adhesion and spreading of hESC embryoid bodies/colonies” value ([3]; feeder-free, within the first week) is reported as “adhered” and the “percentage of neurons (NF200 positive cells)” value ([4]; 7 d) is reported as “higher percentage of neurons”. The “percentage of neurons (NF200 positive cells)” value ([4]; 14 d) was “higher percentage of neurons”.

B1: noggin: BMP4 antagonist protein; mouse recombinant noggin (protein, UniProt P97466 28-232, looked up)
Noggin: QHYLHIRPAPSDNLPLVDLIEHPDPIFDPKEKDLNETLLRSLLGGHYDPGFMATSPPEDRPGGGGGPAGGAEDLAELDQLLRQRPSGAMPSEIKGLEFSEGLAQGKKQRLSKKLRRKLQMWLWSQTFCPVLYAWNDLGSRFWPRYVKVGSCFSKRSCSVPEGMVCKPSKSVHLTVLRWRCQRRGGQRCGWIPIQYPIISECKCSC
In the case of B1, the multinucleated cells [5] is reported as “absent”, the “efficiency of producing Nestin-positive cells” value [6] is reported as ~100% and the “time to produce Nestin-positive cells” value [6] is reported as 3 to 7 days.
